These results are taken from ChEMBL document CHEMBL6109077, “Design, synthesis and in vitro validation of bivalent binders of SARS-CoV-2 spike protein: Obeticholic, betulinic and glycyrrhetinic acids as building blocks” (Bioorg Med Chem, 2025).

Molecules are shown by their SMILES. Calls of active or inactive are those of the source. The rule behind the calls is not given here.

For this assay, the target named is Glycoprotein (Vesicular stomatitis Indiana virus (strain San Juan) (VSIV)) (UniProt P03522). Kind of assay: Inhibition of glycoprotein in pseudotyped Vesicular stomatitis virus infected in 293T/ACE2 cells assessed as reduction in viral entry at 10 uM preincubated with virus for 1 hr followed by cell infection and measured after 48 hrs by bright-glo luciferase reporter gene assay. The following applies: time 49.0 hrs. The format is cell-based.
Chain of Glycoprotein (Vesicular stomatitis Indiana virus (strain San Juan) (VSIV)) (P03522 whole entry): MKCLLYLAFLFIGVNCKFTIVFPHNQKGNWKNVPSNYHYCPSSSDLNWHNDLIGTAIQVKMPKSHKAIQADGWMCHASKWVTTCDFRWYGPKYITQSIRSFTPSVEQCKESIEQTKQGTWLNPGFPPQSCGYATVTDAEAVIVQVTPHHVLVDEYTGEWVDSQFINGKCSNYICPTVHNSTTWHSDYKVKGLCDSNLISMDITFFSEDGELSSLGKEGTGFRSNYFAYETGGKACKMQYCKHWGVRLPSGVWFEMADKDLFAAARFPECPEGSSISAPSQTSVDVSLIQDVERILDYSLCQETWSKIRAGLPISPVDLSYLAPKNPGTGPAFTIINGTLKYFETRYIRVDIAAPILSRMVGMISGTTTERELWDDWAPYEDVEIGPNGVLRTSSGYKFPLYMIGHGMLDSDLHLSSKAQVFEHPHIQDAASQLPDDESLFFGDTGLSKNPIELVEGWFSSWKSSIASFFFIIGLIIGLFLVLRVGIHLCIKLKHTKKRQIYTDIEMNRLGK
As to `C=C(C)[C@@H]1CC[C@]2(C(=O)OC)CC[C@]3(C)[C@H](CC[C@@H]4[C@@]5(C)CC[C@H](OC(=O)CCCCCCCCNC(=O)CC[C@@H](C)[C@H]6CC[C@H]7[C@@H]8[C@H](O)[C@H](CC)[C@@H]9C[C@H](O)CC[C@]9(C)[C@H]8CC[C@]67C)C(C)(C)[C@@H]5CC[C@]43C)[C@@H]12`, the inhibition entry is “inactive”.

On to `C=C(C)[C@@H]1CC[C@]2(C(=O)OC)CC[C@@]3(C)[C@@H]4CC[C@@H]5[C@H](CC[C@H](OC(=O)CCCCc6cn(CCCCCCNC(=O)CC[C@@H](C)[C@H]7CC[C@H]8[C@@H]9[C@H](O)[C@H](CC)[C@@H]%10C[C@H](O)CC[C@]%10(C)[C@H]9CC[C@]78C)nn6)C5(C)C)[C@H]4CC[C@@H]3[C@@H]12`, for which the inhibition result is “inactive”.

Take `C=C(C)[C@@H]1CC[C@]2(C(=O)OC)CC[C@]3(C)[C@H](CC[C@@H]4[C@@]5(C)CC[C@H](OC(=O)CCCNC(=O)CC[C@@H](C)[C@H]6CC[C@H]7[C@@H]8[C@H](O)[C@H](CC)[C@@H]9C[C@H](O)CC[C@]9(C)[C@H]8CC[C@]67C)C(C)(C)[C@@H]5CC[C@]43C)[C@@H]12`: the inhibition entry was “inactive”.

On to `CC[C@H]1[C@@H](O)[C@@H]2[C@H](CC[C@]3(C)[C@@H]([C@H](C)CCC(=O)NCCCCCCn4cc(CCCCC(=O)O[C@H]5CC[C@H]6[C@@H](CC[C@]7(C)[C@@H]6C(=O)C=C6[C@@H]8C[C@@](C)(C(=O)OC)CC[C@]8(C)CC[C@]67C)C5(C)C)nn4)CC[C@@H]23)[C@@]2(C)CC[C@@H](O)C[C@@H]12`, for which the inhibition entry is “inactive”.
